ChEMBL document CHEMBL1201862, “PubChem BioAssay data set” (2004)
Active and inactive are the calls of the source.

Tests used:
Cytochrome P450 1A2 = molecular target: T1, Cytochrome P450 1A2 (Homo sapiens, UniProt P05177);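 further: PubChem cytochrome P450 panel assay, CYP1A2 panel member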
T1 sequence (P05177 whole entry): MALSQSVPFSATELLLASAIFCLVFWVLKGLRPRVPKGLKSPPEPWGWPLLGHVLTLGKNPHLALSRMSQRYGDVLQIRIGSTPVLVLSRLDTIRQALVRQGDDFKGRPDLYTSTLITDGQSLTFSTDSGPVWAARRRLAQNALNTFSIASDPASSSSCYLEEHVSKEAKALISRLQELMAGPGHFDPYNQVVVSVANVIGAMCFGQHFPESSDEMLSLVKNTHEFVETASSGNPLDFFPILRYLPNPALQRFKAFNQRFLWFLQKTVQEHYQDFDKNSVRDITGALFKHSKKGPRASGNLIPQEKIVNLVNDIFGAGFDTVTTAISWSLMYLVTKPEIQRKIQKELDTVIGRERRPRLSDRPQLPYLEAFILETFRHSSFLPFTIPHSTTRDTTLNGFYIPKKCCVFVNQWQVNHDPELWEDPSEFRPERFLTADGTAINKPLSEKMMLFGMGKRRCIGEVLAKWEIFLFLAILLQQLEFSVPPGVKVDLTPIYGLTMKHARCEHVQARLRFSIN

Cytochrome P450 2C9 = Cytochrome P450 2C9 (Homo sapiens, UniProt P11712)
Chain of Cytochrome P450 2C9 (P11712 whole entry): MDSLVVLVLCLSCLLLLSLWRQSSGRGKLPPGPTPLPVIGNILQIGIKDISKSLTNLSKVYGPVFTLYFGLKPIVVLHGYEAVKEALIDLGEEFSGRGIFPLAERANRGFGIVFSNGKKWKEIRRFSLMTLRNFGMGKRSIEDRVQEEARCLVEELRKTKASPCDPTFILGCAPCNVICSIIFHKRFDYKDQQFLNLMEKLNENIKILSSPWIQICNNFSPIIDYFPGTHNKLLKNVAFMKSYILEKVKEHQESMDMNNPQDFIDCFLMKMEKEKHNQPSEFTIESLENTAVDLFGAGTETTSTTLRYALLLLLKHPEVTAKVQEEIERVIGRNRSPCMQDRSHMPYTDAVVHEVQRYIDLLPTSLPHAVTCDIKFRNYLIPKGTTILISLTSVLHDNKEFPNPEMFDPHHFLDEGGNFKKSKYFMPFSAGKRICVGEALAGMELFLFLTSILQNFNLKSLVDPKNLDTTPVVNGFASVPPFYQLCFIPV

Cytochrome P450 3A4 = Cytochrome P450 3A4 (Homo sapiens, UniProt P08684); conditions: Potency;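 further: confirmatory qHTS run detecting inhibitors and substrates of CYP3A4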
Chain of Cytochrome P450 3A4 (P08684 whole entry): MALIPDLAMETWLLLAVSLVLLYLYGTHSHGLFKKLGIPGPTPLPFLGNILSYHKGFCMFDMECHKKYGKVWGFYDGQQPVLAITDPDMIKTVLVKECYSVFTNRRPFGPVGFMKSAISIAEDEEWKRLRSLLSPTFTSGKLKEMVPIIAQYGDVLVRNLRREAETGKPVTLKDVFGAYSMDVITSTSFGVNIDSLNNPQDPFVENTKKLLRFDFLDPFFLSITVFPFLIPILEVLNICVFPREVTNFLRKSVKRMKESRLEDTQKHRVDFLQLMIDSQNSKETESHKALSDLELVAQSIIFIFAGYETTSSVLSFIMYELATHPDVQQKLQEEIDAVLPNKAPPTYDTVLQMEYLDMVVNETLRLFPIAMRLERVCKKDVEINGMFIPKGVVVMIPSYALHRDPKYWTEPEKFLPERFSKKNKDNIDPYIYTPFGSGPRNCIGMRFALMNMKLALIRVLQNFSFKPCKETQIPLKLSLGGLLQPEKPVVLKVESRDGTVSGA

[1] = DRD fibroblast viability loss – cell-based, non-viral oncogenic, luminescence, dose response (AID 1934); type: functional; conditions: Homo sapiens
BJ [2] = test: BJ-TERT-LT-ST fibroblast viability loss – cell-based, RAS-independent, luminescence, dose response (AID 1935); type: functional; conditions: Homo sapiens;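 further: BJ fibroblasts immortalized with TERT plus LT and ST oncogenes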
BJ [3] = test: BJ-TERT fibroblast viability loss – cell-based, RAS-independent, luminescence, dose response (AID 1933); type: functional; conditions: Homo sapiens
BJ [4] = test: cells; type: functional, cell-based; conditions: Homo sapiens
[5] = molecular target: Glyceraldehyde-3-phosphate dehydrogenase (Homo sapiens, UniProt P04406)
Chain of Glyceraldehyde-3-phosphate dehydrogenase (P04406 whole entry): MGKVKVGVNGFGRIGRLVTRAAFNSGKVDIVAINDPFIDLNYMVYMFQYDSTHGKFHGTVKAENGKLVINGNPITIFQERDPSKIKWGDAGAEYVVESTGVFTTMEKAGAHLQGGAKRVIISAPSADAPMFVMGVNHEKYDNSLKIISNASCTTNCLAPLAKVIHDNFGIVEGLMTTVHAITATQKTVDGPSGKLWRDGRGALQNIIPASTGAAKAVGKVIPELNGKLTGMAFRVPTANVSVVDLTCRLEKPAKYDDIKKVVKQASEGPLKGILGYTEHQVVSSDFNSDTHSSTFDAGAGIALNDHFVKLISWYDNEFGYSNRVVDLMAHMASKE

Cytochrome P450 2C19 = Cytochrome P450 2C19 (Homo sapiens, UniProt P33261); test: Cytochrome panel assay with activity outcomes. Panel member name: p450-cyp2c19 Compounds with AC50 equal or less than 10 uM are considered active; type: functional; conditions: read-out: AC50
Chain of Cytochrome P450 2C19 (P33261 whole entry): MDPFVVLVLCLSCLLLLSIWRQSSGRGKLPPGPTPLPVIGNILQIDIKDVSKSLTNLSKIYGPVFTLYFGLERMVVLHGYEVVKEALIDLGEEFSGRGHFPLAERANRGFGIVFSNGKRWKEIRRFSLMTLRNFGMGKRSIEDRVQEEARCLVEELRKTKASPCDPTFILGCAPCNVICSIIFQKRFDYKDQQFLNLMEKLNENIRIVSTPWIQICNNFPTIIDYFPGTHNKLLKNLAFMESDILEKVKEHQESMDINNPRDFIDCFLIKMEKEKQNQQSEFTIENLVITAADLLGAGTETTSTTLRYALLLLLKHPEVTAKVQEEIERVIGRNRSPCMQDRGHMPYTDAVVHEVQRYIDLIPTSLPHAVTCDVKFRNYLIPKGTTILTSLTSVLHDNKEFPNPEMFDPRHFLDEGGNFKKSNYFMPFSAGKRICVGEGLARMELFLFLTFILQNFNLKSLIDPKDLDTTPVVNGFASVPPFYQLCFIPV

Leucine aminopeptidase = molecular target: T2, Leucine aminopeptidase (Plasmodium falciparum 3D7, UniProt Q8IL11); test: P. falciparum M17LAP inhibitors, primary screen, biochemical, fluorogenic H-Leu-NHMec substrate, 1536-well (AID 1619); type: functional
T2 sequence (Q8IL11 whole entry): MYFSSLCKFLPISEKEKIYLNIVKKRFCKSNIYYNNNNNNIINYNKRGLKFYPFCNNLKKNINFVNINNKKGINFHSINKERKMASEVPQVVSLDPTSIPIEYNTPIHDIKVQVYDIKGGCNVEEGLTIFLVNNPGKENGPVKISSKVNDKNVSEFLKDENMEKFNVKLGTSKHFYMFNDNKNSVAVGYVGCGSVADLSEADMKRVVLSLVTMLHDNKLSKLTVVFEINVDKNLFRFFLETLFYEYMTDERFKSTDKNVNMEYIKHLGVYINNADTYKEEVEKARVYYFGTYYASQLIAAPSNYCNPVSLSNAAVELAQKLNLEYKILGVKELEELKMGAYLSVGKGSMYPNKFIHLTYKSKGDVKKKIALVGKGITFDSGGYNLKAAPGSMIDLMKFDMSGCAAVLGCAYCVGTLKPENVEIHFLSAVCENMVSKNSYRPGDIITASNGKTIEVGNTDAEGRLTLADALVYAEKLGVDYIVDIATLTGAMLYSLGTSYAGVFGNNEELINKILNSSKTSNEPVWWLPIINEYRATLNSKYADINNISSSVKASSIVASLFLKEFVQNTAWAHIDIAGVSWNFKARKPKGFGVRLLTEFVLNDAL

H4 = test: Luminescence Cell-Based Dose Response HTS to Identify Activators of 5'UTR Stem-Loop Driven Prion Protein mRNA Translation in H4 Neuroglioblastoma Cells. [Related pubchem assays: 1829 (Project Summary), 1814 (Primary HTS)]; type: functional; conditions: Homo sapiens
[6] = Luminescence Cell-Based Dose Response HTS to Identify Activators of Luciferase Translation or Activity in H4 […] Cells. [Related pubchem assays: 1829 (Project Summary), 1814 (Primary HTS)]; type: functional
[7] = Luminescence Cell-Based Dose Confirmation HTS to Identify Activators of 5'UTR Stem-Loop Driven Alpha-Synuclein mRNA Translation in H4 Neuroglioblastoma Cells. [Related pubchem assays: 1829 (Project Summary), 1814 (Primary HTS)]; type: functional

## CCn1c(SCC(=O)c2ccc(OC)cc2)nnc1C1CC1
Cytochrome P450 1A2
  AC50: 17.8 µM (inconclusive)
Cytochrome P450 2C9
  AC50: inconclusive

## CC1(C)C(O)CC(=O)[C@]2(C)C1CC(=O)[C@]1(C)C2CC[C@@]2(C)C(c3ccoc3)OC(=O)C3O[C@@]321 (stereo partly specified)
Cytochrome P450 3A4
  AC50: 10 µM (inconclusive)

## N#CCCn1c(=O)c(-c2ccc(Cl)cc2)nc2cnc(Oc3cccc(Cl)c3)nc21
Cytochrome P450 2C9
  AC50: inconclusive

## Cc1ccc(Nc2nc(-c3cccnc3)nc3ccccc23)cc1
[1]
  EC50: 15.8 µM (active)
BJ [2]
  EC50: > 150 µM (inconclusive)
BJ [3]
  EC50: 28.5 µM (active)
BJ [4]
  EC50: 20.3 µM (active)

## CCCn1c(C)nc2c(NCCN3CCOCC3)nc(C)nc21
Cytochrome P450 3A4
  AC50: 20 µM (inconclusive)

## CN1CCN(C2=C(Cl)C(=O)N(c3cccc(C(F)(F)F)c3)C2=O)CC1
[5]
  IC50: > 50 µM (inconclusive)

## Cc1nc(NC(=O)c2ccccc2)sc1-c1csc(Nc2ccc(F)cc2)n1
Cytochrome P450 2C19
  AC50: 0.355 µM (inconclusive)
Cytochrome P450 1A2
  AC50: 4.47 µM (inconclusive)
Cytochrome P450 2C9
  AC50: inconclusive

## CC1(C)OC2CC3C4CC(F)C5=CC(=O)C=CC5(C)C4C(O)CC3(C)[C@]2(C(=O)CO)O1 (stereo partly specified)
Cytochrome P450 3A4
  AC50: 39.8 µM (inconclusive)

## CCC(=O)OC1CCC2C3CCc4cc(O)ccc4C3CC[C@]12C (stereo partly specified)
Cytochrome P450 3A4
  AC50: 39.8 µM (inconclusive)

## CCNc1ncc2nc(-c3ccc(OC)cc3)c(=O)n(Cc3ccc(F)cc3)c2n1
Cytochrome P450 2C9
  AC50: inconclusive

## COc1cccc(Cn2c(=O)c(-c3cc(F)cc(F)c3)nc3cnc(N4CCOCC4)nc32)c1
Cytochrome P450 2C9
  AC50: inconclusive

## CCSc1nnc(NC(=O)C2(C)Cc3ccccc3C(=O)O2)s1 (stereo unspecified)
Leucine aminopeptidase
  IC50: 33.6 µM (active)

## COC(=O)/C(=C1\OC(=O)C(c2ccccc2)C1=O)c1ccccc1 (stereo unspecified)
Cytochrome P450 3A4
  AC50: 39.8 µM (inconclusive)

## CCCCOc1ccc(C2CCC(C(C)=O)C(C)C2)cc1 (stereo unspecified)
H4
  EC50: 41.5 µM (active)
[6]
  EC50: 26.8 µM (active)
[7]
  EC50: 0.284 µM (active)

## CCOC(=O)c1ccc(NC(=O)CN2C(=O)CSCC2=O)cc1
Leucine aminopeptidase
  IC50: 41.8 µM (active)

## Cn1c(-c2ccc3ccccc3n2)[n+](C)c2ccccc21
H4
  EC50: 40 µM (active)
[6]
  EC50: 12.7 µM (active)
[7]
  EC50: > 120 µM (not active)
